Measured values taken from patent US20080269326A1, “Use of 1-Phenyl-3-Dimethylamino-propane Compounds for Treating Neuropathic Pain” (GRUENENTHAL GmbH, priority 2007, published 2008).
Values joined by “and” are separate entries in the source; they are usually repeats but may differ in a detail not shown here. Equal values may be shown once.

Experiments:
[1] = tested on: mononeuropathic pain, withdrawal threshold of rear paw; test: Mononeuropathy (spinal nerve ligature, SNL), withdrawal threshold by electronic von Frey filament; format: in vivo, rat
Protocol: (§1) Male Sprague Dawley rats (140-180g, Janvier, France) are kept under standard conditions (06.00-18.00 hours light, 18.00-06.00 hours darkness; 20°-24° C. room temperature; 35-70% relative atmospheric humidity, tap water and standard feed as desired) in groups of five animals in Macrolon type 4 cages.
Under pentobarbital narcosis (Narcoren, 60 mg/kg i.p., Merial GmbH, Germany) the spinal nerves L5 and L6 are tightly bound unilaterally on the left side with a silk thread (NC silk black, USP 5/0, metric 1, Braun Melsungen A G, Germany) (Kim and Chung, Pain 1992; 50: 355-63). After the operation the animals were allowed to recover for one week and within this time developed a hypersensitivity on the ipsilateral (left) paw. The hypersensitivity to a pressure stimulus can be measured using an electronic von Frey filament (Somedic, Sweden). For this purpose the animals are placed on a grating under a hood. After the animals became accustomed to the surroundings the damaged (ipsilateral, left) and undamaged (contralateral, right) rear paws are subjected to increasing pressure on the underside of the paw until the animal tries to retract the corresponding paw. The median value of five tests defines the withdrawal threshold of a test time point. The animals are tested on both rear paws before and at various times after administration of the substance or vehicle. For each animal the difference between the test value and pre-test for the ipsilateral and contralateral side is determined, and the result is expressed as the mean value (MW) and standard error of the mean (SEM) for the groups consisting in each case of 10 animals. The difference between the mean difference values of the ipsilateral and contralateral side defines the hypersensitivity induced by mononeuropathy. The statistical significance of the effect of a substance is determined on the basis of the difference values compared to the vehicle group for the ipsilateral and contralateral side, by means of bifactorial variance analysis and post hoc analysis according to Bonferroni.

[2] = tested on: polyneuropathic pain, withdrawal threshold of rear paw; test: Polyneuropathy (streptozotocin-induced diabetic neuropathy, STZ), withdrawal threshold by Randall and Selitto; format: in vivo, rat
Protocol: as §1
Rats receive a single i.p. dose of Streptozotocin (STZ, Sigma Aldrich Chemie, Germany) or vehicle (0.1 mM citrate buffer, pH 4.6). After one week the blood sugar values are determined and animals treated with STZ that have a blood sugar value of ≧17 mM are classed as diabetic in the experiment. Diabetic animals develop a hypersensitivity in the rear paws. The hypersensitivity to a pressure stimulus can be measured using a pressure pain instrument (algesiometer; Ugo Basile, Italy) according to the method of Randall and Selitto (Arch. Int. Pharmcodyn. 1957; 111: 409-19) in diabetic animals compared to healthy control animals of the same weight, in the third week after STZ treatment. After the animals had become accustomed to the surroundings, the rear right paw of damaged (diabetic) and undamaged (healthy) animals was subjected to increasing pressure on the upper side of the paw until the corresponding paw is withdrawn or the animal gives a vocal response. This value defines the withdrawal threshold of a test time point. Diabetic and healthy animals are tested before and at various times after administration of the substance or vehicle. For each animal the difference between the test value and pre-test is determined, and for the groups, each consisting of ten animals, the result is expressed as the mean value (MW) and standard error of the mean (SEM). The difference between the mean difference values of the diabetic and healthy animals defines the polyneuropathy-induced hypersensitivity. The statistical significance of the effect of a substance is determined on the basis of the difference values with respect to the vehicle group for diabetic and healthy animals by means of bifactorial variance analysis and post hoc analysis according to Bonferroni.

Q: Which “withdrawal threshold, test value - pre-test value (MW)” value (shortened to “withdrawal threshold, test value”) ([1]; 0.1 mg/kg i.v., Contra, 30 min) does the source give for CC[C@@H](c1cccc(O)c1)[C@@H](C)CN(C)C [Compound 9, (1R,2R)-3-(3-dimethylamino-1-ethyl-2-methylpropyl)-phenol] here?
A: 0.06 g

Q: And the “withdrawal threshold, test value” value ([1]; 0.1 mg/kg i.v., Contra, 60 min)?
A: -3.13 g

Q: What about the “withdrawal threshold, test value” value ([1]; 0.1 mg/kg i.v., Contra, 180 min) of the same molecule?
A: -4.30 g

Q: And the “withdrawal threshold, test value” value ([1]; 0.1 mg/kg i.v., Ipsi, 30 min)?
A: 1.74 g

Q: What about the “withdrawal threshold, test value” value ([1]; 0.1 mg/kg i.v., Ipsi, 60 min) of the same molecule?
A: -0.59 g

Q: What about the “withdrawal threshold, test value” value ([1]; 0.1 mg/kg i.v., Ipsi, 180 min) of the same molecule?
A: -2.24 g

Q: And the “withdrawal threshold, test value” value ([1]; 0.316 mg/kg i.v., Contra, 30 min)?
A: 0.39 g

Q: And the “withdrawal threshold, test value” value ([1]; 0.316 mg/kg i.v., Contra, 60 min)?
A: ta −6.20 g

Q: What about the “withdrawal threshold, test value” value ([1]; 0.316 mg/kg i.v., Contra, 180 min) of the same molecule?
A: 2.21 g

Q: What about the “withdrawal threshold, test value” value ([1]; 0.316 mg/kg i.v., Ipsi, 30 min) of the same molecule?
A: 5.78 g

Q: And the “withdrawal threshold, test value” value ([1]; 0.316 mg/kg i.v., Ipsi, 60 min)?
A: 2.21 g

Q: And the “withdrawal threshold, test value” value ([1]; 0.316 mg/kg i.v., Ipsi, 180 min)?
A: 1.68 g

Q: What about the “withdrawal threshold, test value” value ([1]; 1 mg/kg i.v., Contra, 30 min) of the same molecule?
A: 2.90 g

Q: What about the “withdrawal threshold, test value” value ([1]; 1 mg/kg i.v., Contra, 60 min) of the same molecule?
A: 2.45 g

Q: What about the “withdrawal threshold, test value” value ([1]; 1 mg/kg i.v., Contra, 180 min) of the same molecule?
A: -6.65 g

Q: What about the “withdrawal threshold, test value” value ([1]; 1 mg/kg i.v., Ipsi, 30 min) of the same molecule?
A: 12.86 g

Q: And the “withdrawal threshold, test value” value ([1]; 1 mg/kg i.v., Ipsi, 60 min)?
A: 7.09 g

Q: And the “withdrawal threshold, test value” value ([1]; 1 mg/kg i.v., Ipsi, 180 min)?
A: 2.01 g

Q: And the “withdrawal threshold, test value” value ([1]; 3.16 mg/kg i.v., Contra, 30 min)?
A: 8.02 g

Q: And the “withdrawal threshold, test value” value ([1]; 3.16 mg/kg i.v., Contra, 60 min)?
A: 2.85 g

Q: What about the “withdrawal threshold, test value” value ([1]; 3.16 mg/kg i.v., Contra, 180 min) of the same molecule?
A: -0.34 g

Q: What about the “withdrawal threshold, test value” value ([1]; 3.16 mg/kg i.v., Ipsi, 30 min) of the same molecule?
A: 18.43 g

Q: And the “withdrawal threshold, test value” value ([1]; 3.16 mg/kg i.v., Ipsi, 60 min)?
A: 20.32 g

Q: What about the “withdrawal threshold, test value” value ([1]; 3.16 mg/kg i.v., Ipsi, 180 min) of the same molecule?
A: 11.06 g

Q: What about the “withdrawal threshold, test value” value ([1]; 10 mg/kg i.v., Contra, 30 min) of the same molecule?
A: 31.85 g

Q: What about the “withdrawal threshold, test value” value ([1]; 10 mg/kg i.v., Contra, 60 min) of the same molecule?
A: 10.62 g

Q: And the “withdrawal threshold, test value” value ([1]; 10 mg/kg i.v., Contra, 180 min)?
A: 4.51 g

Q: What about the “withdrawal threshold, test value” value ([1]; 10 mg/kg i.v., Ipsi, 60 min) of the same molecule?
A: [drawing 7] 19.47 g

Q: And the “withdrawal threshold, test value” value ([1]; 10 mg/kg i.v., Ipsi, 180 min)?
A: 13.65 g

Q: And the “inhibition of the mononeuropathically-induced withdrawal threshold reduction” value ([1]; 10 mg/kg i.v., after 30 minutes, ipsilateral)?
A: full inhibition

Q: And the “statistically significant minimal effective dose” value ([1]; i.v., contralateral withdrawal threshold)?
A: 10 mg/kg

Q: What about the “statistically significant minimal effective dose” value ([1]; i.v., ipsilateral rear paw, mononeuropathic rats) of the same molecule?
A: 1 mg/kg

Q: And the “dosage at which complete inhibition is reached” value ([1]; i.v., mononeuropathic pain model)?
A: 10 mg/kg

Q: What about the “withdrawal threshold, test value” value ([2]; 0.1 mg/kg i.v., Diabetes, 15 min) of the same molecule?
A: 1.0 g

Q: What about the “withdrawal threshold, test value” value ([2]; 0.1 mg/kg i.v., Diabetes, 30 min) of the same molecule?
A: -2.0 g

Q: And the “withdrawal threshold, test value” value ([2]; 0.1 mg/kg i.v., Diabetes, 45 min)?
A: 6.0 g

Q: And the “withdrawal threshold, test value” value ([2]; 0.1 mg/kg i.v., Diabetes, 60 min)?
A: -2.0 g

Q: What about the “withdrawal threshold, test value” value ([2]; 0.1 mg/kg i.v., Naive, 15 min) of the same molecule?
A: 4.0 g

Q: And the “withdrawal threshold, test value” value ([2]; 0.1 mg/kg i.v., Naive, 30 min)?
A: -12.0 g

Q: And the “withdrawal threshold, test value” value ([2]; 0.1 mg/kg i.v., Naive, 45 min)?
A: -2.0 g

Q: What about the “withdrawal threshold, test value” value ([2]; 0.1 mg/kg i.v., Naive, 60 min) of the same molecule?
A: -5.0 g

Q: And the “withdrawal threshold, test value” value ([2]; 0.316 mg/kg i.v., Diabetes, 15 min)?
A: 35.0 g

Q: And the “withdrawal threshold, test value” value ([2]; 0.316 mg/kg i.v., Diabetes, 30 min)?
A: 30.0 g

Q: And the “withdrawal threshold, test value” value ([2]; 0.316 mg/kg i.v., Diabetes, 45 min)?
A: 24.0 g

Q: And the “withdrawal threshold, test value” value ([2]; 0.316 mg/kg i.v., Diabetes, 60 min)?
A: 16.0 g

Q: What about the “withdrawal threshold, test value” value ([2]; 0.316 mg/kg i.v., Naive, 15 min) of the same molecule?
A: 17.0 g

Q: And the “withdrawal threshold, test value” value ([2]; 0.316 mg/kg i.v., Naive, 30 min)?
A: -5.0 g

Q: And the “withdrawal threshold, test value” value ([2]; 0.316 mg/kg i.v., Naive, 45 min)?
A: -5.0 g

Q: What about the “withdrawal threshold, test value” value ([2]; 0.316 mg/kg i.v., Naive, 60 min) of the same molecule?
A: 2.0 g

Q: What about the “withdrawal threshold, test value” value ([2]; 1 mg/kg i.v., Diabetes, 45 min) of the same molecule?
A: 34.0 g

Q: What about the “withdrawal threshold, test value” value ([2]; 1 mg/kg i.v., Diabetes, 60 min) of the same molecule?
A: 27.0 g

Q: What about the “withdrawal threshold, test value” value ([2]; 1 mg/kg i.v., Naive, 15 min) of the same molecule?
A: 42.0 g

Q: What about the “withdrawal threshold, test value” value ([2]; 1 mg/kg i.v., Naive, 30 min) of the same molecule?
A: 28.0 g

Q: And the “withdrawal threshold, test value” value ([2]; 1 mg/kg i.v., Naive, 45 min)?
A: -2.0 g

Q: What about the “withdrawal threshold, test value” value ([2]; 1 mg/kg i.v., Naive, 60 min) of the same molecule?
A: 7.0 g

Q: What about the “inhibition of the polyneuropathically-induced withdrawal threshold reduction” value ([2]; 1 mg/kg i.v., after 15 minutes and 30 minutes, diabetic animals) of the same molecule?
A: complete inhibition

Q: What about the “statistically significant minimal effective dose” value ([2]; i.v., healthy control animals) of the same molecule?
A: 1 mg/kg

Q: And the “dosage at which complete inhibition is reached” value ([2]; i.v., polyneuropathic pain model)?
A: 1 mg/kg

Q: And the “statistically significant minimal effective dose” value ([2]; i.v., rear paw of diabetic rats)?
A: 0.316 mg/kg and 0.3 mg/kg
